Marks after values point to notes of the source that are not given here.
Tests used:
Assay in all cases: imazapyr whole plant greenhouse test (Example 2)
Type in all cases: in vivo
sunflower line L4, A122T = test system: sunflower line L4, A122T
Description: (§1) Seeds were sown in Petri dishes and, after germination, plantlets were transplanted to pots of 10 cm of diameter in a potting media consisting of equal parts of vermiculite, soil and sand. Plants were grown in a greenhouse under natural light conditions supplemented with 400 W sodium halide lamps to provide a 16 hr daylength. Day/night temperatures were 25 and 20 ° C., respectively. At the V2-V4 stage (Schneiter & Miller (1981) Crop Sci. 21:901-903) 10 plants of each genotype were randomly assigned to each treatment consisting of eight imazapyr doses (0, 40, 80, 160, 240, 320, 400 and 480 g ai/ha, corresponding to untreated, 0.5×, 1×, 2×, 3×, 4×, 5× and 6×, respectively), and a zero-time biomass determination. Experiment was arranged as a randomized block design with a full factorial (sunflower line×treatment) arrangement of treatments and 10 replications.
(§2) On the day of herbicide application ten plants of each genotype were cut at the cotyledonal node and dried at 60° C. for 48 hrs for zero-time dried weight determination.
(§3) The remaining plants were maintained for 14 days after imazapyr treatment (DAT) and their height, Phytotoxicity Index (PI) and above ground dry biomass were determined Height was determined as the distance between the cotyledonal node and the apex of each plant. Above ground biomass data from each line were converted to biomass accumulation after application by subtracting the appropriate average zero- time biomass from each sample. Dry biomass data were converted to percentages of the untreated control plants within each line to allow direct comparisons between groups.

sunflower line L2, A205V = test system: sunflower line L2, A205V
Description: as §1, §2, §3

[1] = test system: sunflower genotypes carrying A122T (mean of H2, L3, L4); settings: for Phytotoxicity Index (0-9) 14 days after treatment / biomass accumulation 14 days after treatment, % of untreated / plant height 14 days after treatment, % of untreated: A122T Mean; for height reduction: of the untreated controls
Description: as §1, §2, §3

[2] = test system: sunflower hybrid H4 (L1 × L4), A205V + A122T
Description: as §1, §2, §3

[3] = test system: sunflower genotypes carrying A205V (mean of H1, L1, L2); settings: for Phytotoxicity Index (0-9) 14 days after treatment / biomass accumulation 14 days after treatment, % of untreated / plant height 14 days after treatment, % of untreated: A205V Mean
Description: as §1, §2, §3

## CC(C)C1(C)N=C(c2ncccc2C(=O)O)NC1=O (stereo not shown) [imazapyr]
Sunflower line L4, A122T; dose 0.5 (0.5x, 40 g ai/ha)
  Phytotoxicity Index (0-9) 14 days after treatment: 0.0
  biomass accumulation 14 days after treatment, % of untreated: 100.0%
  plant height 14 days after treatment, % of untreated: 100.0%
Sunflower line L4, A122T; dose 1 (1x, 80 g ai/ha)
  Phytotoxicity Index (0-9) 14 days after treatment: 0.0
  biomass accumulation 14 days after treatment, % of untreated: 99.1%
  plant height 14 days after treatment, % of untreated: 100.0%
Sunflower line L4, A122T; dose 2 (2x, 160 g ai/ha)
  Phytotoxicity Index (0-9) 14 days after treatment: 0.0
  biomass accumulation 14 days after treatment, % of untreated: 97.0%
  plant height 14 days after treatment, % of untreated: 101.8%
Sunflower line L4, A122T; dose 3 (3x, 240 g ai/ha)
  Phytotoxicity Index (0-9) 14 days after treatment: 0.0
  biomass accumulation 14 days after treatment, % of untreated: 96.1%
  plant height 14 days after treatment, % of untreated: 97.0%
Sunflower line L4, A122T; dose 4 (4x, 320 g ai/ha)
  Phytotoxicity Index (0-9) 14 days after treatment: 0.0
  biomass accumulation 14 days after treatment, % of untreated: 84.3%
  plant height 14 days after treatment, % of untreated: 92.1%
Sunflower line L4, A122T; dose 5 (5x, 400 g ai/ha)
  Phytotoxicity Index (0-9) 14 days after treatment: 0.0
  biomass accumulation 14 days after treatment, % of untreated: 77.5%
  plant height 14 days after treatment, % of untreated: 84.8%
Sunflower line L4, A122T; dose 6 (6x, 480 g ai/ha)
  Phytotoxicity Index (0-9) 14 days after treatment: 0.5
  biomass accumulation 14 days after treatment, % of untreated: 70.7%
  plant height 14 days after treatment, % of untreated: 79.8%
Sunflower line L2, A205V; dose 0.5 (0.5x, 40 g ai/ha)
  Phytotoxicity Index (0-9) 14 days after treatment: 0
  biomass accumulation 14 days after treatment, % of untreated: 99.2%
  plant height 14 days after treatment, % of untreated: 99.2%
Sunflower line L2, A205V; dose 1 (1x, 80 g ai/ha)
  Phytotoxicity Index (0-9) 14 days after treatment: 0
  biomass accumulation 14 days after treatment, % of untreated: 85.0%
  plant height 14 days after treatment, % of untreated: 98.1%
Sunflower line L2, A205V; dose 2 (2x, 160 g ai/ha)
  Phytotoxicity Index (0-9) 14 days after treatment: 3.1
  biomass accumulation 14 days after treatment, % of untreated: 58.1%
  plant height 14 days after treatment, % of untreated: 63.6%
Sunflower line L2, A205V; dose 3 (3x, 240 g ai/ha)
  Phytotoxicity Index (0-9) 14 days after treatment: 3.9
  biomass accumulation 14 days after treatment, % of untreated: 48.1%
  plant height 14 days after treatment, % of untreated: 51.9%
Sunflower line L2, A205V; dose 4 (4x, 320 g ai/ha)
  Phytotoxicity Index (0-9) 14 days after treatment: 5.9
  biomass accumulation 14 days after treatment, % of untreated: 28.8%
  plant height 14 days after treatment, % of untreated: 27.5%
Sunflower line L2, A205V; dose 5 (5x, 400 g ai/ha)
  Phytotoxicity Index (0-9) 14 days after treatment: 6.9
  biomass accumulation 14 days after treatment, % of untreated: 27.4%
  plant height 14 days after treatment, % of untreated: 26.0%
Sunflower line L2, A205V; dose 6 (6x, 480 g ai/ha)
  Phytotoxicity Index (0-9) 14 days after treatment: 6.7
  biomass accumulation 14 days after treatment, % of untreated: 24.9%
  plant height 14 days after treatment, % of untreated: 29.3%
[1]; dose 0.5 (0.5x, 40 g ai/ha)
  Phytotoxicity Index (0-9) 14 days after treatment: 0.3
  biomass accumulation 14 days after treatment, % of untreated: 98.9%
  plant height 14 days after treatment, % of untreated: 99.9%
[1]; dose 1 (1x, 80 g ai/ha)
  Phytotoxicity Index (0-9) 14 days after treatment: 0.3
  biomass accumulation 14 days after treatment, % of untreated: 96.7* %
  plant height 14 days after treatment, % of untreated: 99.5%
[1]; dose 2 (2x, 160 g ai/ha)
  Phytotoxicity Index (0-9) 14 days after treatment: 0.3
  biomass accumulation 14 days after treatment, % of untreated: 92.2** %
  plant height 14 days after treatment, % of untreated: 98.0%
[1]; dose 3 (3x, 240 g ai/ha)
  Phytotoxicity Index (0-9) 14 days after treatment: 0.3
  biomass accumulation 14 days after treatment, % of untreated: 90.0** %
  plant height 14 days after treatment, % of untreated: 95.7* %
[1]; dose 4 (4x, 320 g ai/ha)
  Phytotoxicity Index (0-9) 14 days after treatment: 0.5
  biomass accumulation 14 days after treatment, % of untreated: 85.7** %
  plant height 14 days after treatment, % of untreated: 94.6** %
[1]; dose 5 (5x, 400 g ai/ha)
  Phytotoxicity Index (0-9) 14 days after treatment: 0.8
  biomass accumulation 14 days after treatment, % of untreated: 74.3** %
  plant height 14 days after treatment, % of untreated: 85.4** %
[1]; dose 6 (6x, 480 g ai/ha)
  Phytotoxicity Index (0-9) 14 days after treatment: 1.2
  biomass accumulation 14 days after treatment, % of untreated: 69.9** %
  plant height 14 days after treatment, % of untreated: 81.2** %
[1]; A122T homozygous, 0.5x
  height reduction: 0.1%
[1]; A122T homozygous, 6x
  height reduction: 18.8%
[1]; A122T homozygous, higher dose (6x)
  reduction of biomass weight: 25%
[2]; dose 0.5 (0.5x, 40 g ai/ha)
  Phytotoxicity Index (0-9) 14 days after treatment: 0.0
  biomass accumulation 14 days after treatment, % of untreated: 99.479%
  plant height 14 days after treatment, % of untreated: 100.0%
[2]; dose 1 (1x, 80 g ai/ha)
  Phytotoxicity Index (0-9) 14 days after treatment: 0.0
  biomass accumulation 14 days after treatment, % of untreated: 97.8%
  plant height 14 days after treatment, % of untreated: 99.6%
[2]; dose 2 (2x, 160 g ai/ha)
  Phytotoxicity Index (0-9) 14 days after treatment: 0.0
  biomass accumulation 14 days after treatment, % of untreated: 92.2%
  plant height 14 days after treatment, % of untreated: 100.0%
[2]; dose 3 (3x, 240 g ai/ha)
  Phytotoxicity Index (0-9) 14 days after treatment: 0.0
  biomass accumulation 14 days after treatment, % of untreated: 88.2%
  plant height 14 days after treatment, % of untreated: 100.0%
[2]; dose 4 (4x, 320 g ai/ha)
  Phytotoxicity Index (0-9) 14 days after treatment: 0.0
  biomass accumulation 14 days after treatment, % of untreated: 85.0%
  plant height 14 days after treatment, % of untreated: 95.0%
[2]; dose 5 (5x, 400 g ai/ha)
  Phytotoxicity Index (0-9) 14 days after treatment: 0.2
  biomass accumulation 14 days after treatment, % of untreated: 78.7%
  plant height 14 days after treatment, % of untreated: 87.2%
[2]; dose 6 (6x, 480 g ai/ha)
  Phytotoxicity Index (0-9) 14 days after treatment: 0.0
  biomass accumulation 14 days after treatment, % of untreated: 71.8%
  plant height 14 days after treatment, % of untreated: 65.5%
[3]; dose 0.5 (0.5x, 40 g ai/ha)
  Phytotoxicity Index (0-9) 14 days after treatment: 0
  biomass accumulation 14 days after treatment, % of untreated: 95.3* %
  plant height 14 days after treatment, % of untreated: 99.6%
[3]; dose 1 (1x, 80 g ai/ha)
  Phytotoxicity Index (0-9) 14 days after treatment: 0
  biomass accumulation 14 days after treatment, % of untreated: 85.5** %
  plant height 14 days after treatment, % of untreated: 99.2%
[3]; dose 2 (2x, 160 g ai/ha)
  Phytotoxicity Index (0-9) 14 days after treatment: 2.2*
  biomass accumulation 14 days after treatment, % of untreated: 62.8** %
  plant height 14 days after treatment, % of untreated: 73.7** %
[3]; dose 3 (3x, 240 g ai/ha)
  Phytotoxicity Index (0-9) 14 days after treatment: 5.1**
  biomass accumulation 14 days after treatment, % of untreated: 48.1** %
  plant height 14 days after treatment, % of untreated: 50.1** %
[3]; dose 4 (4x, 320 g ai/ha)
  Phytotoxicity Index (0-9) 14 days after treatment: 7.4**
  biomass accumulation 14 days after treatment, % of untreated: 33.5** %
  plant height 14 days after treatment, % of untreated: 31.5** %
[3]; dose 5 (5x, 400 g ai/ha)
  Phytotoxicity Index (0-9) 14 days after treatment: 8.2**
  biomass accumulation 14 days after treatment, % of untreated: 28.7** %
  plant height 14 days after treatment, % of untreated: 27.7** %
[3]; dose 6 (6x, 480 g ai/ha)
  Phytotoxicity Index (0-9) 14 days after treatment: 8.2**
  biomass accumulation 14 days after treatment, % of untreated: 26.1** %
  plant height 14 days after treatment, % of untreated: 30.4** %
[3]; A205V homozygous, from 2x to 6x, of the untreated controls
  height reduction, value reached: 69.6%

Source: patent US20150148234A1, “HERBICIDE-RESISTANT SUNFLOWER PLANTS WITH MULTIPLE HERBICIDE RESISTANT ALLELES OF AHASL1 AND METHODS OF USE” (NIDERA S.A., priority 2013, published 2015)
